In patent US7655664B2, “Hydantoin derivatives as metalloproteinase inhibitors” (AstraZeneca AB, priority 2004, dated 2010):

Assays:
Type in all cases: biochemical
[1] = biological target: T1, Recombinant human MMP9 catalytic domain (Homo sapiens, UniProt P14780); assay: MMP9 isolated enzyme assay (fluorogenic substrate); conditions: 30 min, RT, read-out: hMMP9 IC50
T1 sequence (P14780 with tags, fused parts or gaps DEL216-390 limits assumed): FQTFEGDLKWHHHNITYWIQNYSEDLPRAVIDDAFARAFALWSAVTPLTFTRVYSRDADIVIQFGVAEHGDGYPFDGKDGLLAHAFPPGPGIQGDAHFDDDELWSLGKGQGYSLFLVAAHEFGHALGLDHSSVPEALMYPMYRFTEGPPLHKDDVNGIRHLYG
Procedure: Recombinant human MMP9 catalytic domain was expressed and then purified by Zn chelate column chromatography followed by hydroxamate affinity column chromatography. The enzyme can be used to monitor inhibitors of activity as follows: MMP9 (5 ng/ml final concentration) is incubated for 30 minutes at RT with the synthetic substrate Mca-Pro-Cha-Gly-Nva-His-Ala-Dpa-NH2 (5 μM) in assay buffer (0.1M “Tris-HCl” (trade mark) buffer, pH 7.3 containing 0.1M NaCl, 20 mM CaCl2, 0.020 mM ZnCl and 0.05% (w/v) “Brij 35” (trade mark) detergent) in the presence (10 concentrations) or absence of inhibitors. Activity is determined by measuring the fluorescence at […]. Percent inhibition is calculated as follows: % Inhibition is equal to the [Fluorescenceplus inhibitor−Fluorescencebackground] divided by the [Fluorescenceminus inhibitor−Fluorescencebackground]. MMP14

[2] = biological target: T2, hMMP8 (APMA-activated pro-MMP8) (Homo sapiens, UniProt P22894); assay: MMP8 isolated enzyme assay (fluorogenic substrate); conditions: 90 min, 35° C.
T2 construct: purchased Calbiochem
T2 sequence (P22894 101-467): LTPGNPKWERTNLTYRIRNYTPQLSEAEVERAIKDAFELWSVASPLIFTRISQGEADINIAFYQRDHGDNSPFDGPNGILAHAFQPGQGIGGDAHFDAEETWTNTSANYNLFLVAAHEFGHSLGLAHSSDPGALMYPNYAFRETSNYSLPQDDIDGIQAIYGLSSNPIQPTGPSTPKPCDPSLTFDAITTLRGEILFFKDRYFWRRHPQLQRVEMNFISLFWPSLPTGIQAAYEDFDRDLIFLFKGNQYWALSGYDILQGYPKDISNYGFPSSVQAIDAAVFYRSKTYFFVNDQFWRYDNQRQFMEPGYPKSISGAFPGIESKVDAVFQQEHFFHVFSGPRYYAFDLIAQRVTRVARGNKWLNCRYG
Procedure: Purified pro-MMP8 is purchased from Calbiochem. The enzyme (at 10 μg/ml) is activated by p-amino-phenyl-mercuric acetate (APMA) at 1 mM for 2.5 h, 35° C. The activated enzyme can be used to monitor inhibitors of activity as follows: MMP8 (200 ng/ml final concentration) is incubated for 90 minutes at 35° C. (80% H2O) with the synthetic substrate Mca-Pro-Cha-Gly-Nva-His-Ala-Dpa-NH2 (12.5 μM) in assay buffer (0.1 M “Tris-HCl” (trade mark) buffer, pH 7.5 containing 0.1M NaCl, 30 mM CaCl2, 0.040 mM ZnCl and 0.05% (w/v) “Brij 35” (trade mark) detergent) in the presence (10 concentrations) or absence of inhibitors. Activity is determined by measuring the fluorescence at λex 320 nm and λem 405 nm. Percent inhibition is calculated as follows: % Inhibition is equal to the [Fluorescenceplus inhibitor−Fluorescencebackground] divided by the [Fluorescenceminus inhibitor−Fluorescencebackground]. MMP9

[3] = biological target: T3, Recombinant human MMP14 catalytic domain (Homo sapiens, UniProt P50281); assay: MMP14 isolated enzyme assay (fluorogenic substrate); conditions: 60 min, room temperature, read-out: hMMP14 IC50
T3 construct: Recombinant human MMP14 catalytic domain; made in house
Procedure: Recombinant human MMP14 catalytic domain may be expressed and purified as described by Parkar A. A. et al, (2000), Protein Expression and Purification, 20, 152. The purified enzyme can be used to monitor inhibitors of activity as follows: MMP14 (10 ng/ml final concentration) is incubated for 60 minutes at room temperature with the synthetic substrate Mca-Pro-Cha-Gly-Nva-His-Ala-Dpa-NH2 (10 μM) in assay buffer (0.1M “Tris-HCl” (trade mark) buffer, pH 7.5 containing 0.1M NaCl, 20 mM CaCl2, 0.020 mM ZnCl and 0.05% (w/v) “Brij 35” (trade mark) detergent) in the presence (5 concentrations) or absence of inhibitors. Activity is determined by measuring the fluorescence at λex 320 nm and λem 405 nm. Percent inhibition is calculated as follows: % Inhibition is equal to the [Fluorescenceplus inhibitor−Fluorescencebackground] divided by the [Fluorescenceminus inhibitor−Fluorescencebackground].

[4] = biological target: T4, Recombinant human MMP12 catalytic domain (Homo sapiens, UniProt P39900); assay: MMP12 isolated enzyme assay (fluorogenic substrate); conditions: 60 min, room temperature, read-out: hMMP12 IC50
T4 construct: Recombinant human MMP12 catalytic domain; made in house
T4 sequence (P39900 106-263 limits assumed): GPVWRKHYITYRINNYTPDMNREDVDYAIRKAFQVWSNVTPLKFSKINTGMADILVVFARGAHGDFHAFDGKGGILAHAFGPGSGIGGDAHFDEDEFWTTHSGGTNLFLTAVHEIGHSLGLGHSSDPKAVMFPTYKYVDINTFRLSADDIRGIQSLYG
Procedure: Recombinant human MMP12 catalytic domain may be expressed and purified as described by Parkar A. A. et al, (2000), Protein Expression and Purification, 20, 152. The purified enzyme can be used to monitor inhibitors of activity as follows: MMP12 (50 ng/ml final concentration) is incubated for 60 minutes at room temperature with the synthetic substrate Mca-Pro-Cha-Gly-Nva-His-Ala-Dpa-NH2 (10 μM) in assay buffer (0.1M “Tris-HCl” (trade mark) buffer, pH 7.3 containing 0.1M NaCl, 20 mM CaCl2, 0.020 mM ZnCl and 0.05% (w/v) “Brij 35” (trade mark) detergent) in the presence (10 concentrations) or absence of inhibitors. Activity is determined by measuring the fluorescence at λex 320 nm and λem 405 nm. Percent inhibition is calculated as follows: % Inhibition is equal to the [Fluorescenceplus inhibitor−Fluorescencebackground] divided by the [Fluorescenceminus inhibitor−Fluorescencebackground]. MMP8

[5] = biological target: T5, Recombinant human MMP19 catalytic domain (Homo sapiens, UniProt Q99542); assay: MMP19 isolated enzyme assay (fluorogenic substrate); conditions: 120 min, 35° C., read-out: hMMP19 IC50
T5 construct: Recombinant human MMP19 catalytic domain; made in house
T5 sequence (Q99542 98-256 limits assumed): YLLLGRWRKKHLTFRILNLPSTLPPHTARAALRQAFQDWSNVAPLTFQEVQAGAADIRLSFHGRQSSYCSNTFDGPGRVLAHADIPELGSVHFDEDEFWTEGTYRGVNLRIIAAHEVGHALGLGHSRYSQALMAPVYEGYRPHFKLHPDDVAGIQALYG
Procedure: Recombinant human MMP19 catalytic domain may be expressed and purified as described by Parkar A. A. et al, (2000), Protein Expression and Purification, 20:152. The purified enzyme can be used to monitor inhibitors of activity as follows: MMP19 (40 ng/ml final concentration) is incubated for 120 minutes at 35° C. with the synthetic substrate Mca-Pro-Leu-Ala-Nva-Dpa-Ala-Arg-NH2 (5 μM) in assay buffer (0.1M “Tris-HCl” (trade mark) buffer, pH 7.3 containing 0.1M NaCl, 20 mM CaCl2, […] ZnCl and 0.05% (w/v) “Brij 35” (trade mark) detergent) in the presence (5 concentrations) or absence of inhibitors. Activity is determined by measuring the fluorescence at λex 320 nm and λem 405 nm. Percent inhibition is calculated as follows: % Inhibition is equal to the [Fluorescenceplus inhibitor−Fluorescencebackground] divided by the [Fluorescenceminus inhibitor−Fluorescencebackground].

IC50 [1] [µM] | IC50 [2] [µM] | IC50 [3] [µM] | IC50 [4] [µM] | IC50 [5] [µM] | Structure (SMILES)
0.0101 | 3.05 | > 10 | 0.00878 | > 10 | C[C@]1(CS(=O)(=O)N2CCc3cc(-c4cnc(C5CC5)nc4)ccc3C2)NC(=O)NC1=O [Example 1, (5S)-5-({[6-(2-Cyclopropylpyrimidin-5-yl)-3,4-dihydroisoquinolin-2(1H)-yl]sulfonyl}methyl)-5-methylimidazolidine-2,4-dione]
0.0215 | 2.47 | > 10 | 0.0266 |  | C[C@]1(CS(=O)(=O)N2CCc3cc(-c4ccc(C5CC5)nc4)ncc3C2)NC(=O)NC1=O [Example 2, (5S)-5-({[6-(6-Cyclopropylpyridin-3-yl)-3,4-dihydro-2,7-naphthyridin-2(1H)-yl]sulfonyl}methyl)-5-methylimidazolidine-2,4-dione]
0.0038 | 1.31 | 8.81 | 0.0069 | 3.76 | CC[C@]1(CS(=O)(=O)N2CCc3cc(-c4cnc(C5CC5)nc4)ccc3C2)NC(=O)NC1=O [Example 5, (5S)-5-({[6-(2-Cyclopropylpyrimidin-5-yl)-3,4-dihydroisoquinolin-2(1H)-yl]sulfonyl}methyl)-5-ethylimidazolidine-2,4-dione]
